# Assay results from patent publication US4681754A, “Counteracting cyclosporin organ toxicity” (Sandoz Ltd., priority 1984, dated 1987).
# Key:
# Format in all cases: in vivo
# OFI mice = assay: Test 2: immuno-suppressive activity, anti-body producing cell development in the mouse (PFC test); details: Cyclosporine alone p.o. on 3 successive days
# Experimental: The test is carried out employing .female. OFI mice sensibilized by i.v. administration of ca. 1×10^8 sheep erythrocytes (SRBC). The test animals are divided into groups of 5.
# The spleens are removed on day 4 and a cell suspension prepared and incubated with fresh SRBC antigen on soft agar. After addition of compliment, which, together with anti-body secreted from the sensibilized cells, dissolves SRBC in the vicinity of secreting cells, plaque development is counted and compared with results obtained employing untreated control mice.
# rats (F344×WF)FI = assay: Test 1: immuno-suppressive activity, local graft-versus-host (GVH) reaction in the rat; details: Cyclosporine alone p.o. on 4 successive days
# Experimental: The test is carried out employing rats (F344×WF)FI sensibilized by injection into the hind-foot of spleen cells taken from .female. Wistar-Furth (WF) rats. The test animals are divided into groups of 8. […] GVH reaction is determined by measurement of increase in lymphe node weight compared with untreated controls.
# OFA rats = assay: Test 3: anti-inflammatory activity, adjuvant arthritis in the rat; details: Cyclosporine alone p.o./day for 14 days
# Experimental: For this test adjuvant arthritis is induced in accordance with the method described by Pearson and Wood, "Arthr. Rheum." 2, 440 (1959). OFA .female. rats are employed as test animals. […] Administration is effected in all cases on successive days for 14 days starting on day 1 after antigen administration and inflammatory reaction is determined on day 19 after antigen administration.
substance,measurement,setting,value
Cyclosporine,"ED50 for Cyclosporine, PFC test (plaque development)",OFI mice,40 mg/kg
same,"ED50 for Cyclosporine, GVH reaction (increase in lymph node weight)",rats (F344×WF)FI,27 mg/kg
same,"ED50 for Cyclosporine, adjuvant arthritis (inflammatory reaction day 19)",OFA rats,4.2 mg/kg
